US20170316147A1, “METHODS AND SYSTEMS FOR IDENTIFYING LIGAND-PROTEIN BINDING SITES” (King Abdullah University of Science and Technology, priority 2014, published 2017)
“Also recorded” adds a separate entry of the source. No end group written: not given here.

Key:
[1] = target: T1, Bcl-2 (Homo sapiens, UniProt P10415, A37T/A38E/A42E/A43T/DEL46-86/G36R/G41E/P39A/P44E/P88R/P90T/S87E/V35N/V89E); assay: Differential static light scattering (aggregation temperature) of Bcl-2; format: binding
T1 construct: made in house
Description: We also tested direct binding of CoA to recombinant Bcl-2 (see supporting information file PredTargets). Bcl-2, the founding member of the Bcl-2 family of regulator proteins that regulate cell death, is an important anti-apoptotic protein and is classified as an oncogene. Using differential static light scattering (DSLS) we observed that the aggregation temperature Tagg for 0.5 mg/ml apo-Bcl-2 was ˜57° C. […] The predicted CoA binding pocket by iDTP was adjacent to the Bax-BH binding site and without significant overlap (FIG. 5(b)). The presence of CoA was therefore not expected to displace bound Bax-BH3. […] Thus, our in vitro binding experiments strongly supported our computational binding predictions.
DSLS measured by the Stargazer system (Harbinger Biotechnology and Engineering Corporation, Markham, Canada) was used to assess the thermal stability of Bcl-2 in the absence or presence of CoA and control ligands. DSLS measures the specific aggregation temperature, Tagg at which a protein aggregates as a result of heat denaturing. Thus, DSLS provides the thermal stability of proteins, which is expected to vary in presence of ligands. Bcl-2 at 0.5 mg/mL was overlaid with mineral oil in a clear bottom 384-well black plate (Corning) were heated from 20 to 85° C. at 1° C./min and the light scattering was detected by a CCD camera every 0.5° C. in the absence or presence of varying concentrations of CoA, yielding the difference in aggregation temperature at a particular CoA concentration from apo Bc1-2 ΔTagg. Data were normalized and Kd values were calculated by plotting ΔTagg against the CoA concentration. Resulting data were fitted using a binding saturation single site model (GraphPad).
Differential static light scattering (DSLS). DSLS measured by the Stargazer system (Harbinger Biotechnology and Engineering Corporation, Markham, Canada) was used to assess the thermal stability of Bcl-2 in the presence or absence of CoA and to control ligands. DSLS measures the specific aggregation temperature, Tagg, at which a protein aggregates as a result of heat denaturing. Thus, DSLS provides proteins with thermal stability, which is expected to vary in the presence of ligands. Bcl-2 at 0.5 mg/mL was overlaid with mineral oil in a clear bottom 384-well black plate (Corning), and heated from 20 to 85° C. at 1° C./min; light scattering was detected by a CCD camera every 0.5° C. in the presence or absence of varying concentrations of CoA, yielding the difference in aggregation temperature at a particular CoA concentration from apo Bcl-2 ΔTagg. Data were normalized and Kd values were calculated by plotting ΔTagg against the CoA concentration. Resulting data were fitted using a binding-saturation single-site model (GraphPad).
Target sequence in this assay (P10415 with tags, fused parts or gaps with the stated changes): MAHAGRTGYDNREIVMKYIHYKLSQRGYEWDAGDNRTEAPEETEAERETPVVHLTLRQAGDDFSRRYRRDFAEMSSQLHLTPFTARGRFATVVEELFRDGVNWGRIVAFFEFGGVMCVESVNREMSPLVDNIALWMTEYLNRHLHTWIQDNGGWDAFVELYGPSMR

[2] = target: T2, hPPARγ-LBD (Homo sapiens, UniProt P37231); assay: Fluorescence anisotropy titrations of fluorescein-labelled coactivator/corepressor peptides with hPPARγ-LBD in presence of ligand
T2 sequence (P37231 196-477 isoform P37231-2): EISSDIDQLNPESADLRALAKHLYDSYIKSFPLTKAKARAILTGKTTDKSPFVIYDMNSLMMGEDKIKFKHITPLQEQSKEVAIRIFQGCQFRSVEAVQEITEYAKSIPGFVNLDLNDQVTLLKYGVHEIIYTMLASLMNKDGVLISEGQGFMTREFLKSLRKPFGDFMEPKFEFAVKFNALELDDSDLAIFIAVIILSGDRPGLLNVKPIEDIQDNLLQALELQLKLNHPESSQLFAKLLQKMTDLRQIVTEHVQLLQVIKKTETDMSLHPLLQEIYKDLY
Description: Next, we used fluorescence anisotropy (FA) to characterize the interaction between hPPARγ-LBD and its natural partner proteins upon CoA binding. We measured the dissociation constant (Kd) between hPPARγ-LBD and fluorescein-labeled peptides derived from a coactivator protein (PGC1) and two corepressor proteins (NCoR and SMRT). […] If an increasing molar excess of the ligand has an increasing influence on the Kd of the fluorescently labeled coactivator/corepressor, then we can infer ligand binding, because the ligand disturbs binding to coactivators or corepressors.
Binding affinities of the fluorescent peptides for hPPARγ LBD were measured in the presence or absence of ligands using a Safire2 microplate reader (TECAN). For the fluorescence-labeled peptides, excitation wavelength was set at 470 nm and emission measured at 530 nm. The reported data are the average of independent experiments and error bars correspond to standard deviations. The buffer solution for assays was 20 mM Tris-HCl pH 7.5, 150 mM NaCl, 1 mM EDTA, 5 mM dithiothreitol, and 10% (v/v) glycerol. The measurements were initiated at 40 μM of the protein, and then the sample was diluted successively by a factor of 2 with the buffer until the lowest protein concentration reached 9.7 nM. Fluorescent peptides were added to the protein samples at 4 nM, allowing establishment of the titration curve. Ligands, when added, were at final concentration of 80 μM.
Binding affinities of the fluorescent peptides for hPPARγ LBD were measured in the presence or absence of ligands using a Safire2 microplate reader (TECAN). Fluorescent-labeled peptides were measured using an excitation wavelength of 470 nm; emission was measured at 530 nm. Data are the average of independent experiments and error bars correspond to standard deviations. The buffer solution for assays consisted of 20 mM Tris-HCl pH 7.5, 150 mM NaCl, 1 mM EDTA, 5 mM dithiothreitol, and 10% (v/v) glycerol. Measurements began at 40 μM of the protein, followed by successive two-fold sample dilutions with buffer, until reaching the lowest protein concentration (9.7 nM). Fluorescent peptides were added to the protein samples at 4 nM to allow the establishment of the titration curve. Added ligands were at a final concentration of 80 μM.

[3] = target: T1, Bcl-2; assay: Fluorescence anisotropy competition: CoA against Bax-BH3 bound to Bcl-2; format: binding; details: 20 nM Bax-BH3, 400 nM Bcl-2, CoA up to 4.7 mM; listed as CoA
Excerpt: Fluorescence anisotropy measurements.
Target sequence in this assay (P10415 with tags, fused parts or gaps with the stated changes, one chain of several): as the sequence (P10415 with tags, fused parts or gaps with the stated changes) above

[4] = target: T1, Bcl-2; assay: Intrinsic tryptophan fluorescence quenching binding assay
Description: Bcl-2 tryptophans were excited at 280 nM and the emission intensity was measured at 320 nM. 10 μM Bcl-2 was incubated with various dilutions of CoA for 10 min before measurement. The fluorescence emitted was monitored using a PheraStar fluorescence plate reader in 96-well plates. Change in tryptophan fluorescence occurs due to conformational change in the protein, when it is bound to the ligand and the difference in the fluorescence intensity was recorded and analyzed. Data were normalized, and Kd values were calculated by fitting to a Binding-Saturation single site model with GraphPad.
Intrinsic tryptophan fluorescence quenching binding assay. Bcl-2 tryptophans were excited at 280 nM and the emission intensity was measured at 320 nM. 10 μM Bcl-2 was incubated with various dilutions of CoA for 10 min before measurement. Emitted fluorescence was monitored using a PheraStar fluorescence plate reader in 96-well plates. Change in tryptophan fluorescence occurs due to conformational changes in the protein when it is bound to the ligand; differences in the fluorescence intensity were recorded and analyzed. Data were normalized and Kd values were calculated by fitting to a Binding-Saturation single-site model with GraphPad.
Target sequence in this assay (P10415 with tags, fused parts or gaps with the stated changes): as the sequence (P10415 with tags, fused parts or gaps with the stated changes) above

[5] = target: T2, hPPARγ-LBD; assay: Differential scanning fluorimetry (thermal shift) on hPPARγ-LBD; format: binding; parameters: human PPARγ (amino acids Glu196-Tyr477); made in house; details: for Tm of hPPARγ-LBD: 5 μM hPPARg
Excerpt: PPARγ is a nuclear hormone receptor regulating numerous biological functions including adipogenesis and cell differentiation. Its dysregulation is involved in the onset of diabetes and obesity. The interaction of the ligand binding domain (LBD) of human PPARγ (hPPARγ-LBD) with CoA is one of our most promising predictions, because this interaction achieved a high iDTP score and statistically significant co-citation index (SI Table 3). The pocket predicted by iDTP to bind CoA overlaps with the known ligand binding site of this receptor.
(§1) This method measures the protein unfolding based on fluorescence detection of the denatured form of the protein [59]. […] The plates were sealed with an optical sealing tape (Bio-Rad) and heated in an Mx3005P Q-PCR system (Stratagene) from 25 to 95° C. at 1° C. intervals. Fluorescence changes in the wells were monitored with a photomultiplier tube. The wavelengths for excitation and emission were 545 nm and 568 nm, respectively. The melting temperatures, Tm, were obtained by fitting the fluorescence data with a Boltzmann model using the GraphPad Prism software.
as §1, with “Differential scanning fluorimetry (DSF or Thermofluor). This” for “This”, “measures” for “measures the”, “(Pantoliano et al., 2001).” for “[59].”, “25° C.” for “25”, “using” for “using the”

[6] = target: T3, chimeric human Bcl-2 (with the internal loop 51-91 removed and residues 35-50 replaced by residues 33-48 of … (human; mouse, UniProt P10415 1-34; Q64373 33-48; P10415 92-207); assay: DSLS, aggregation temperature of 0.5 mg/mL Bcl-2 with 400 nM peptide (apo Bcl-2 56.85 ± 0.14)
T3 construct: also called recombinant Bcl-2; Bc1-2
T3 sequence (P10415 other isoform, or with tags, fused parts or gaps mutant limits assumed): as the sequence (P10415 with tags, fused parts or gaps with the stated changes) above

[7] = target: T3, chimeric human Bcl-2 (with the internal …); assay: fluorescence anisotropy (FA), same experiment as FIG. 5(a), rounded
[8] = target: T3, chimeric human Bcl-2 (with the internal …); assay: fluorescence anisotropy of labeled Bax-BH3 against Bcl-2 concentration, single binding site model
[9] = target: T3, chimeric human Bcl-2 (with the internal …); assay: differential static light scattering (DSLS), aggregation temperature of 0.5 mg/ml Bcl-2
[10] = target: T3, chimeric human Bcl-2 (with the internal …); assay: DSLS, aggregation temperature of 0.5 mg/mL Bcl-2 with 1 uM peptide (apo Bcl-2 56.85 ± 0.14); negative control

QDASTKKLSECLRRIGDELDSNMELQRMIAD [Bax-BH3 peptide, reference compound]
Tagg of Bcl-2 ([1]; 0.5 mg/mL Bcl-2, 400 nM ligand): 67.30 ± 1.02 °C | Tagg of Bcl-2 ([1]; 0.5 mg/mL Bcl-2, 400 nM ligand, listed as Bax-BH3): 67 °C

LSDAMETSSLRDALE [scrambled LD4 peptide, scrambled version of the Bcl-2 ligand LD4, negative control, reference compound]
effect on Tagg of Bcl-2 ([1]; 0.5 mg/ml Bcl-2, 1 μM peptide (negative control)): did not alter Tagg

CC(C)(COP(=O)(O)OP(=O)(O)OC[C@H]1O[C@@H](n2cnc3c(N)ncnc32)[C@H](O)[C@@H]1OP(=O)(O)O)[C@@H](O)C(=O)NCCC(=O)NCCS [Coenzyme A]
Kd [2]: < 500 µM | nature of the ligand-hPPARγ-LBD interaction ([2]; inferred from effect on coactivator and corepressor binding): neutral antagonist | effect on affinity of hPPARγ-LBD for corepressors NCoR and SMRT ([2]; two to ten molar excess): lowered the affinity | effect on affinity of hPPARγ-LBD for the coactivator PGC1 ([2]; two to ten molar excess (CD5577: two molar excess)): lowered the affinity | displacement of Bax-BH3 from Bcl-2 (fluorescence anisotropy/polarization) [3]: did not reduce the FA; also recorded: without displacing Bax-BH3; also recorded: unable to displace | Kd ([4]; 10 μM Bcl-2, increasing CoA concentrations, read-out: Kd from tryptophan fluorescence quenching, single binding site model): 380 µM | Kd ([4]; summary value in discussion, read-out: Kd for recombinant Bcl-2 in vitro): ~350 µM | Tm of hPPARγ-LBD ([5]; 35 μM ligand): 46.6 °C | Tm of hPPARγ-LBD ([5]; 70 μM ligand): 46.5 °C | Tm of hPPARγ-LBD ([5]; 140 μM ligand): 45.5 °C | Tm of hPPARγ-LBD ([5]; 280 μM ligand): 41.7 °C | Tm of hPPARγ-LBD ([5]; 1400 μM ligand): 27.5 °C | lowering of hPPARγ-LBD Tm compared to the apo-protein ([5]; seven molar excess of ligand): 0.8 °C | Tagg of Bcl-2 ([1]; 0.5 mg/mL Bcl-2, 0.1 mM ligand): 57.65 ± 0.19 °C | Tagg of Bcl-2 ([1]; 0.5 mg/mL Bcl-2, 0.25 mM ligand): 59.72 ± 1.011 °C | Tagg of Bcl-2 ([1]; 0.5 mg/mL Bcl-2, 0.5 mM ligand): 59.83 ± 0.21 °C | Tagg of Bcl-2 ([1]; 0.5 mg/mL Bcl-2, 0.75 mM ligand): 60.49 ± 0.46 °C | Tagg of Bcl-2 ([1]; 0.5 mg/mL Bcl-2, 1 mM ligand): 60.88 ± 0.46 °C | Tagg of Bcl-2 ([1]; 0.5 mg/mL Bcl-2, 1.5 mM ligand): 61.12 ± 0.58 °C | Tagg of Bcl-2 ([1]; 0.5 mg/mL Bcl-2, 2 mM ligand): 61.25 ± 0.66 °C | Tagg of Bcl-2 ([1]; 0.5 mg/mL Bcl-2, 3 mM ligand): 61.78 ± 0.45 °C | Tagg of Bcl-2 reached with increasing ligand concentrations ([1]; 0.5 mg/ml Bcl-2, increasing concentrations of CoA): up to 62 °C | Kd ([1]; DSLS thermal stability of Bcl-2, read-out: Kd from ΔTagg versus concentration, single binding site model): 320 ± 130 µM

B1: fluorescence-labeled peptide QDASTKKLSECLRRIGDELDSNMELQRMIAD corresponding to Bax-BH3 (peptide)
peptide: QDASTKKLSECLRRIGDELDSNMELQRMIAD
modifications: also: fluorescein label, position not given here
notes: Bought from Genscript; also called Bax-BH3 peptide
Tagg (° C.) [6]: 67.3 ° C. | Kd [7]: 0.128 µM | Kd [8]: ~0.128 µM

B2: scrambled LD4 peptide (LSDAMETSSLRDALE, a scrambled version of the Bcl-2 ligand LD4) (peptide)
peptide: LSDAMETSSLRDALE
notes: Negative control peptide, bought from Genscript; also called Scramble LD4 peptide
binding result [9]: no binding (tested: 1 µM) | Tagg (° C.) [10]: 57 ° C.
